The subject of assay [1] is brain-specific receptors (tritiated benzodiazepine binding, P2-synaptosomal fraction of rat whole cortex). Put plainly: Inhibition of the binding of 3H-benzodiazepine to brain-specific receptors of rats. Further details: species or system Male albino rats (Wistar strain). Particulars: 3H-diazepam (1.5 nM) or 3H-flunitrazepam (1.0 nM), pH 7.4, 30 minutes in ice; test concentration not given.

Assay [2] is described as follows: Hypotensive activity in spontaneously hypertensive rats. In kind it is in vivo, spontaneously hypertensive rats of the Okamoto strain. Particulars: 100 mg/kg by gavage, two doses 24 hours apart, measured at 28 hours after the initial dose; one or two rats. As to the method: The novel compounds of the present invention are active hypotensive agents and were tested for hypotensive activity by the method of P. S. Chan and D. Poorvin, Clinical and Experimental Hypertension, 1 (6), 817-830 (1979). […] One to 3 rats are used per test compound. A rat is dosed by gavage with a test compound suspended in 2% pre-boiled starch at a concentration of 50 mg/ml, at a dose of 100 mg/kg of body weight or less, with 0.9% sodium chloride loading at a dose of 25 ml/kg of body weight. A second identical dose of the test compound, without sodium chloride loading is given 24 hours later. At 28 hours after the initial dose the mean arterial blood pressure is measured by the method of Chan and Poorvin (see above). The procedure is repeated in a second and third rat when necessary. The results of this test on representative compounds of the present invention which were obtained using one or two rats, at a dose of 100 mg/kg of body weight appear below in Table I.

Assay [3] is described as follows: Hypoxic Survival Test. To be noted: for % Survivors: 10% oxygen, 5 minutes. In kind it is in vivo, Royal Hart mice. The procedure: Groups of 20 Royal Hart mice (6 weeks of age) are injected intraperitoneally with 10, 50 or 100 mg/kg of test compound 30 minutes prior to placing them in a hypoxic mixture (10% oxygen in 90% […]) and measuring survival after 5 minutes.
A separate group of 20 mice is injected intraperitoneally with saline solution (0.01 cc/g of body weight) and processed as described above.
Still another group of 20 mice is injected intraperitoneally with 0.125 mg/kg of physostigmine and processed as described above.

Each structure is given as a SMILES string.

`N#Cc1c(N2CCCCC2)nn2c(-c3cccnc3)ccnc12` [2-(1-Piperidinyl)-7-(3-pyridinyl)pyrazolo[1,5-a]pyrimidine-3-carbonitrile]: in assay [1], the “% Inhibition of the binding of 3H-benzodiazepine” value (“% Inhibition” for short) came to 14%. In addition, the “Mean Arterial Blood Pressure” value in assay [2] was 141 mm of mercury. Besides, in assay [3] (100 mg/kg i.p.), the “% Survivors” value came to 45%.

With `CN1CCN(c2nn3c(-c4cccc(C(F)(F)F)c4)ccnc3c2C#N)CC1` [2-(4-Methyl-1-piperazinyl)-7-[3-(trifluoromethyl)phenyl]pyrazolo[1,5-a]pyrimidine-3-carbonitrile], in assay [2], the “Mean Arterial Blood Pressure” value is reported as 139 mm of mercury.

With `N#Cc1c(N2CCSCC2)nn2c(-c3cccc(C(F)(F)F)c3)ccnc12` [2-(4-Thiomorpholinyl)-7-[3-(trifluoromethyl)phenyl]pyrazolo[1,5-a]pyrimidine-3-carbonitrile], in assay [2], the “Mean Arterial Blood Pressure” value is reported as 148 mm of mercury.

For `N#Cc1c(N2CCN(CCO)CC2)nn2c(-c3cccnc3)ccnc12` [2-[4-(2-Hydroxyethyl)-1-piperazinyl]-7-(3-pyridinyl)pyrazolo[1,5-a]pyrimidine-3-carbonitrile], in assay [1], the “% Inhibition” value stood at 25%.

In the case of `N#Cc1c(N2CCN(CCO)CC2)nn2c(-c3cccc(C(F)(F)F)c3)ccnc12` [2-[4-(2-Hydroxyethyl)-1-piperazinyl]-7-[3-(trifluoromethyl)phenyl]pyrazolo[1,5-a]pyrimidine-3-carbonitrile], the “% Inhibition” value in assay [1] amounted to 41%. For the same compound, the “Mean Arterial Blood Pressure” value in assay [2] is reported as 111 mm of mercury. Besides, the “% Survivors” value in assay [3] (10 mg/kg i.p.) came out at 45%.

As for `N#Cc1c(N2CCN(CCCCOc3ccccc3)CC2)nn2c(-c3cccnc3)ccnc12` [2-[4-(4-Phenoxybutyl)-1-piperazinyl]-7-(3-pyridinyl)pyrazolo[1,5-a]pyrimidine-3-carbonitrile], the “% Inhibition” value in assay [1] is given as 33%. Besides, the “Mean Arterial Blood Pressure” value in assay [2] is 144 mm of mercury.

As for `N#Cc1c(N2CCN(CCCCOc3ccccc3)CC2)nn2c(-c3cccc(C(F)(F)F)c3)ccnc12` [2-[4-(4-Phenoxybutyl)-1-piperazinyl]-7-[3-(trifluoromethyl)phenyl]pyrazolo[1,5-a]pyrimidine-3-carbonitrile], the “% Inhibition” value in assay [1] is listed as 26%. In addition, the “Mean Arterial Blood Pressure” value in assay [2] is reported as 147 mm of mercury.

For the compound `N#Cc1c(N2CCN(Cc3ccccc3)CC2)nn2c(-c3cccnc3)ccnc12` [2-[4-(Phenylmethyl)-1-piperazinyl]-7-(3-pyridinyl)pyrazolo[1,5-a]pyrimidine-3-carbonitrile], the “Mean Arterial Blood Pressure” value in assay [2] was 124 mm of mercury. Also, the “% Survivors” value in assay [3] (50 mg/kg i.p.) came to 40%.

`NC(=O)c1c(N2CCN(Cc3ccccc3)CC2)nn2c(-c3cccc(C(F)(F)F)c3)ccnc12` [2-[4-(Phenylmethyl)-1-piperazinyl]-7-[3-(trifluoromethyl)phenyl]pyrazolo[1,5-a]pyrimidine-3-carboxamide]: the “% Inhibition” value in assay [1] worked out at 14%.

Take `N#Cc1c(N2CCC(Cc3ccccc3)CC2)nn2c(-c3cccc(C(F)(F)F)c3)ccnc12` [2-[4-(Phenylmethyl)-1-piperidinyl]-7-[3-(trifluoromethyl)phenyl]pyrazolo[1,5-a]pyrimidine-3-carbonitrile]: in assay [1], the “% Inhibition” value came out at 46%. Besides, the “Mean Arterial Blood Pressure” value in assay [2] is 142 mm of mercury.

For the compound `N#Cc1c(N2CCN(Cc3c(Cl)cccc3Cl)CC2)nn2c(-c3cccnc3)ccnc12` [2-[4-[(2,6-Dichlorophenyl)methyl]-1-piperazinyl]-7-(3-pyridinyl)pyrazolo[1,5-a]pyrimidine-3-carbonitrile], the “Mean Arterial Blood Pressure” value in assay [2] is given as 124 mm of mercury.

In the case of `N#Cc1c(N2CCN(Cc3c(Cl)cccc3Cl)CC2)nn2c(-c3cccc(C(F)(F)F)c3)ccnc12` [2-[4-[(2,6-Dichlorophenyl)methyl]-1-piperazinyl]-7-[3-(trifluoromethyl)phenyl]pyrazolo[1,5-a]pyrimidine-3-carbonitrile], the “% Inhibition” value in assay [1] is given as 22%.

As for `N#Cc1c(N2CCN(Cc3cccc(Cl)c3)CC2)nn2c(-c3cccnc3)ccnc12` [2-[4-[(3-Chlorophenyl)methyl]-1-piperazinyl]-7-(3-pyridinyl)pyrazolo[1,5-a]pyrimidine-3-carbonitrile], in assay [1], the “% Inhibition” value stood at 12%. Also, in assay [2], the “Mean Arterial Blood Pressure” value is 137 mm of mercury.

In the case of `N#Cc1c(N2CCN(Cc3cccc(Cl)c3)CC2)nn2c(-c3cccc(C(F)(F)F)c3)ccnc12` [2-[4-[(3-Chlorophenyl)methyl]-1-piperazinyl]-7-[3-(trifluoromethyl)phenyl]pyrazolo[1,5-a]pyrimidine-3-carbonitrile], the “% Inhibition” value in assay [1] is reported as 33%.

For the compound `COc1cccc(CN2CCN(c3nn4c(-c5cccnc5)ccnc4c3C#N)CC2)c1.Cl` [2-[4-[(3-Methoxyphenyl)methyl]-1-piperazinyl]-7-(3-pyridinyl)pyrazolo[1,5-a]pyrimidine-3-carbonitrile, monohydrochloride], the “% Inhibition” value in assay [1] was 18%. For the same compound, the “Mean Arterial Blood Pressure” value in assay [2] is on record as 138 mm of mercury.

`COc1cccc(CN2CCN(c3nn4c(-c5cccc(C(F)(F)F)c5)ccnc4c3C#N)CC2)c1` [2-[4-[(3-Methoxyphenyl)methyl]-1-piperazinyl]-7-[3-(trifluoromethyl)phenyl]pyrazolo[1,5-a]pyrimidine-3-carbonitrile]: the “Mean Arterial Blood Pressure” value in assay [2] is reported as 140 mm of mercury.

With `N#Cc1c(N2CCN(Cc3ccc(Cl)cc3)CC2)nn2c(-c3cccnc3)ccnc12` [2-[4-[(4-Chlorophenyl)methyl]-1-piperazinyl]-7-(3-pyridinyl)pyrazolo[1,5-a]pyrimidine-3-carbonitrile], in assay [2], the “Mean Arterial Blood Pressure” value is listed as 137 mm of mercury.

As to `N#Cc1c(N2CCN(Cc3ccc(Cl)cc3)CC2)nn2c(-c3cccc(C(F)(F)F)c3)ccnc12` [2-[4-[(4-Chlorophenyl)methyl]-1-piperazinyl]-7-[3-(trifluoromethyl)phenyl]pyrazolo[1,5-a]pyrimidine-3-carbonitrile], the “% Inhibition” value in assay [1] was 15%. Also, the “Mean Arterial Blood Pressure” value in assay [2] is 127 mm of mercury.

For `COc1ccc(CN2CCN(c3nn4c(-c5cccc(C(F)(F)F)c5)ccnc4c3C#N)CC2)cc1` [2-[4-[(4-Methoxyphenyl)methyl]-1-piperazinyl]-7-[3-(trifluoromethyl)phenyl]pyrazolo[1,5-a]pyrimidine-3-carbonitrile], the “% Inhibition” value in assay [1] is on record as 18%. In addition, in assay [2], the “Mean Arterial Blood Pressure” value is given as 136 mm of mercury.

As to `Cc1cc(-c2ccncc2)n2nc(N3CCN(Cc4ccccc4)CC3)c(C#N)c2n1` [5-Methyl-2-[4-(phenylmethyl)-1-piperazinyl]-7-(4-pyridinyl)pyrazolo[1,5-a]pyrimidine-3-carbonitrile], the “Mean Arterial Blood Pressure” value in assay [2] is given as 122 mm of mercury.

As for `N#Cc1c(N2CCN(Cc3ccccc3)CC2)nn2c(-c3cccc(Cl)c3)ccnc12` [7-(3-Chlorophenyl)-2-[4-(phenylmethyl)-1-piperazinyl]pyrazolo[1,5-a]pyrimidine-3-carbonitrile], the “Mean Arterial Blood Pressure” value in assay [2] is 147 mm of mercury. Further, the “% Survivors” value in assay [3] (50 mg/kg i.p.) turned out to be 47%.

For `N#Cc1c(N2CCSCC2)nn2c(-c3cccnc3)ccnc12` [7-(3-Pyridinyl)-2-(4-thiomorpholinyl)pyrazolo[1,5-a]pyrimidine-3-carbonitrile], in assay [2], the “Mean Arterial Blood Pressure” value is reported as 141 mm of mercury. Further, the “% Survivors” value in assay [3] (100 mg/kg i.p.) is 50%.

Take `N#Cc1c(N2CCN(c3ccccn3)CC2)nn2c(-c3cccnc3)ccnc12` [7-(3-Pyridinyl)-2-[4-(2-pyridinyl)-1-piperazinyl]pyrazolo[1,5-a]pyrimidine-3-carbonitrile]: the “Mean Arterial Blood Pressure” value in assay [2] is reported as 143 mm of mercury.

As for `N#Cc1c(N2CCN(Cc3ccccc3)CC2)nn2c(-c3ccc(Cl)cc3)ccnc12` [7-(4-Chlorophenyl)-2-[4-(phenylmethyl)-1-piperazinyl]pyrazolo[1,5-a]pyrimidine-3-carbonitrile], the “Mean Arterial Blood Pressure” value in assay [2] was 142 mm of mercury.

As for `CN(C)C=NC(=O)c1c(N2CCN(Cc3ccccc3)CC2)nn2c(-c3cccc(C(F)(F)F)c3)ccnc12` [N-[(Dimethylamino)methylene]-2-[4-(phenylmethyl)-1-piperazinyl]-7-[3-(trifluoromethyl)phenyl]pyrazolo-[1,5-a]pyrimidine-3-carboxamide], the “Mean Arterial Blood Pressure” value in assay [2] is on record as 103 mm of mercury.

For the compound `CNC(=O)Oc1ccc2c(c1)[C@]1(C)CCN(C)[C@@H]1N2C` [physostigmine, reference compound], the “physostigmine treated mice survive” value in assay [3] (0.125 mg/kg i.p., 5 minute exposure) is 60-80%.
